These results are taken from patent US8647673B2, “Nanoparticles for imaging and treating chlamydial infection” (Wayne State University, priority 2007, dated 2014).

Values after ≈ are worked out from the molar mass of the structure shown. Read-outs that look alike come from different tables or passages of the source.

This experiment deals with C. trachomatis (serovar K). Nature of the experiment: Microsusceptibility: chlamydial inclusion counts in infected McCoy cells. The format is cell-based. The settings on record: for change in MIC50 with length of treatment: 24 vs 48 hrs incubation, treated immediately following infection; for MIC50: Chlamydia trachomatis; for sensitivity (decrease in inclusion number with increasing dose): drug added 24 or 48 hours post infection, 24 hours in presence of drug. On the procedure: FIG. 19. […] McCoy cells were infected with C trachomatis serovar K at MOI=1. […] Drugs were administered either encapsulated in nanoparticles (top panel) or dissolved in growth medium (bottom panel). Chlamydial viability was determined by counting the number of inclusions/well.
Cells and growth of Chlamydia. McCoy cells were seeded onto 96-well microtitre plates at a concentration of 2×10^5 cells per well and allowed to adhere overnight at 37° C. and 5% CO2 in Eagles MEM supplemented with 10% FBS and […] Glutamine. The following day, the cells were inoculated with C. trachomatis (UW-31, serovar K) at 10^4 IFU/well and centrifuged at 2500 rpm for 1 hr at room temperature, followed by incubation at 37° C. for 1 hr. The inoculum was then aspirated and replaced with the appropriate two fold dilution of free drug or encapsulated nanoparticles prepared in antibiotic-free growth media containing 0.06% glucose and 1 μg/ml cyclohexamide. The cells were incubated in the presence of drug for 24 or 48 hrs post infection and then fixed with 100% MeOH. Chlamydial inclusions were detected by immunofluorescence using BioRad Pathfinder® according to the manufacturer's instructions and the plates subsequently stored protected from light at 4° C.
McCoy cells were seeded onto 96-well microtiter plates and then infected the next day with 10^4 IFU/well C. trachomatis (serovar K).
McCoy cells were seeded onto 96-well microtiter plates and then infected the next day with 10^4 IFU/well C. trachomatis (serovar K). […] The mean inclusion number was plotted as a function of concentration.
McCoy cells (2×10^5/well) were seeded onto 96-well microtitre plates and then infected the next day with 10^4 IFU/well C. trachomatis (serovar K). […] The cells were incubated for 24 hours in the presence of drug and then fixed. Based on previous experiments we refined the concentrations ranges for each of the two free drugs and encapsulated nanoparticles.
McCoy cells (2×10^5/well) were seeded onto 96-well microtitre plates and then infected the next day with 10^4 IFU/well C. trachomatis (serovar K). […] The cells were incubated for 24 hours in the presence of drug and then fixed. […] We, therefore, extended the concentration ranges for the two drugs.
McCoy cells (2×10^5/well) were seeded onto 96-well microtitre plates and then infected the next day with 10^4 IFU/well C. trachomatis (serovar K). […] The cells were incubated for 24 hours or 48 hours in the presence of drug and then fixed.
Free and nanoparticle-encapsulated antibiotics added at either t0 (time of infection) or after 24 hr of infection (t24), were compared along with blank nanoparticles as controls.

Setting [1] is: 24 h, added immediately following infection, 24 hours in the presence of drug (Example 9), read-out: MIC50.
Where [2] appears, read: treated individually, MOI=1, drug added at overlay, nanoparticles not conjugated to folic acid (Example 16), read-out: MIC50.

With `CC[C@H]1OC(=O)[C@H](C)[C@@H](O[C@H]2C[C@@](C)(OC)[C@@H](O)[C@H](C)O2)[C@H](C)[C@@H](O[C@@H]2O[C@H](C)C[C@H](N(C)C)[C@H]2O)[C@](C)(O)C[C@@H](C)CN(C)[C@H](C)[C@@H](O)[C@]1(C)O` [azithromycin], the “change in MIC50 with length of treatment” value was “no significant change in MIC50” and the “sensitivity (decrease in inclusion number with increasing dose)” value is on record as “marked insensitivity”. Further, the MIC50 under setting [1] came to 0.04 µg/mL. In addition, the MIC50 (in the presence of 0.004 μg/ml rifampin (Example 16), read-out: MIC50 of azithromycin) was found to be 0.016 µg/mL. In addition, the MIC50 under setting [2] was determined as 0.032 µg/mL (≈ 0.0427 µM).
As for `CO[C@H]1/C=C/O[C@@]2(C)Oc3c(C)c(O)c4c(O)c(c(/C=N/N5CCN(C)CC5)c(O)c4c3C2=O)NC(=O)/C(C)=C\C=C\[C@H](C)[C@H](O)[C@@H](C)[C@@H](O)[C@@H](C)[C@H](OC(C)=O)[C@@H]1C` [rifampin], the “change in MIC50 with length of treatment” value was “no significant change in MIC50” and the “sensitivity (decrease in inclusion number with increasing dose)” value is recorded as “marked insensitivity”. Besides, the MIC50 under setting [1] stood at 0.005 µg/mL. For the setting “24 h, drug added at 24 hpi and left on for 24 hours, read-out: MIC50”, the MIC50 was above 0.08 µg/mL. Moreover, the MIC50 (read-out: MIC50 of rifampin, in the presence of 0.016 μg/ml azithromycin (Example 16)) was determined as 0.002 µg/mL. Under setting [2], the MIC50 was determined as 0.008 µg/mL (≈ 0.00972 µM).
